From US5965539A, “Inhibitors of prenyl transferases” (Univeristy of Pittsburgh, priority 1996, dated 1999)
Where two headings read alike, the source gives them in different places.

Experiments:
Type in all cases: biochemical
[1] = biological target: T1, FTase (Homo sapiens, UniProt P49356); experiment: FTase activity assay: transfer of [3H]farnesyl from FPP to recombinant H-Ras-CVLS, Daudi 60,000xg supernatant; conditions: for Selectivity: FTase over GGTase I; for GG/F: ratio GGTase I IC50 / FTase IC50
T1 construct: FTase and GGTase I activities from 60,000×g supernatants of human Burkitt lymphoma (Daudi) cells; endogenous in cells; host or cells: human Burkitt lymphoma (Daudi) cells, 60,000xg supernatant (partially purified)
T1 sequence (P49356 whole entry): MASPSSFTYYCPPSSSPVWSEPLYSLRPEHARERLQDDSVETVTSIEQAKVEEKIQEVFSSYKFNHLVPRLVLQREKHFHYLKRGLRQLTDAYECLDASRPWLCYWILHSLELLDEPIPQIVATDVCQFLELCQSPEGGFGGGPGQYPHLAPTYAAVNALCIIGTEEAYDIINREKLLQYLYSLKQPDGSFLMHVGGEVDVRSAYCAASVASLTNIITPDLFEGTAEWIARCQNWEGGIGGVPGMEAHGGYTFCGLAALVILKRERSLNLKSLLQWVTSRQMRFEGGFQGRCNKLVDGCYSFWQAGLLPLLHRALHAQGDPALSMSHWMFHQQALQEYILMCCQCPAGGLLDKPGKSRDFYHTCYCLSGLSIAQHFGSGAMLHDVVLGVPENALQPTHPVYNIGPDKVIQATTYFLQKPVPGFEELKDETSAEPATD
Method: FTase and GGTase I activities from 60,000×g supernatants of human Burkitt lymphoma (Daudi) cells (ATCC, Rockville, Md., USA) were assayed as described previously for FTase (41). Briefly, 100 μg of the supernatant was incubated in 50 mM Tris, pH 7.5, 50 μM ZnCl2, 20 mM KCl and 1 mM dithiothreitol (DTT).
Human Burkitt lymphoma (Daudi) cells (ATCC, Rockville, Md.) were grown in suspension in RPMI 1640 medium containing 10% fetal bovine serum (FBS) and 1% Pen-Strep in a humidified 10% CO2 incubator at 37° C. The cells were harvested and sonicated in 50 mM Tris, pH 7.5, 1 mM EDTA, 1 mM EGTA, 25 μg/ml leupeptin, 1 mM phenylmethylsulfonyl fluoride. Homogenates were then spun at 12,000×g and the resulting supernatant further spun at 60,000×g. The supernatant was assayed for both FTase and GGTase I. Briefly, 100 μg of the supernatants was incubated in 50 mM Tris, pH 7.5, 50 μM ZnCl2, 20 mM KCl, 3 mM MgCl2 and 1 mM DTT. […] FPP (625 nM; 16.3 Ci/mmol). For GGTase assays, the reaction was also incubated for 30 minutes at 37° C. but with recombinant H-Ras-CVLL (5 μM) and [^3 H] GGPP (525 nM; 19.0 Ci/mmol). The reaction was stopped and passed through glass fiber filters to separate free and incorporated label. For inhibition studies, the peptidomimetics were premixed with FTase or GGTase I prior to adding the remainder of the reaction mixture. […] Recombinant H-Ras-CVLL was prepared from bacteria (32).
FTase and GGTase I activities from 60,000×g supernatants of human Burkitt lymphoma (Daudi) cells (ATCC, Rockville, Md.) were assayed exactly as described previously for FTase (41).

[2] = biological target: T2, GGTase I (Homo sapiens, UniProt P53609); experiment: GGTase I activity assay: transfer of [3H]geranylgeranyl to recombinant H-Ras-CVLL, Daudi 60,000xg supernatant
T2 construct: FTase and GGTase I activities from 60,000×g supernatants of human Burkitt lymphoma (Daudi) cells; endogenous in cells; host or cells: human Burkitt lymphoma (Daudi) cells, 60,000xg supernatant (partially purified)
T2 sequence (P53609 whole entry): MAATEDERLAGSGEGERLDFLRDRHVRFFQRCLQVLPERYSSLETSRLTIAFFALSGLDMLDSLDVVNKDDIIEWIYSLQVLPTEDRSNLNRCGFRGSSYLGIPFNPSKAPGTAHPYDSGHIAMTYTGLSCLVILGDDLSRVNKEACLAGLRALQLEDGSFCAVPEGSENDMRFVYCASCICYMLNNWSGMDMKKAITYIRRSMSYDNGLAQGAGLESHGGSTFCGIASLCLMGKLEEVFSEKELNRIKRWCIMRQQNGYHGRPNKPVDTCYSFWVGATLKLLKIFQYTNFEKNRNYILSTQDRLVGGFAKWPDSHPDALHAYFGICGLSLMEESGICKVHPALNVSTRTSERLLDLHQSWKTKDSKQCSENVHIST
Method: FTase and GGTase I activities from 60,000×g supernatants of human Burkitt lymphoma (Daudi) cells (ATCC, Rockville, Md., USA) were assayed as described previously for FTase (41). Briefly, 100 μg of the supernatant was incubated in 50 mM Tris, pH 7.5, 50 μM ZnCl2, 20 mM KCl and 1 mM dithiothreitol (DTT). The reaction was incubated at […] for 30 min with recombinant Ha-Ras-CVLS (11 μM) and [^3 H]FPP (625 nM; 16.3 Ci/mmol) for FTase, and recombinant Ha-Ras-CVLL (5 μM) and [^3 H]geranylgeranylpyrophosphate (525 nM; 19.0 Ci/mmol) for GGTase I. The peptidomimetics were mixed with FTase and GGTase before adding to the reaction mixture.
Human Burkitt lymphoma (Daudi) cells (ATCC, Rockville, Md.) were grown in suspension in RPMI 1640 medium containing 10% fetal bovine serum (FBS) and 1% Pen-Strep in a humidified 10% CO2 incubator at 37° C. The cells were harvested and sonicated in 50 mM Tris, pH 7.5, 1 mM EDTA, 1 mM EGTA, 25 μg/ml leupeptin, 1 mM phenylmethylsulfonyl fluoride. Homogenates were then spun at 12,000×g and the resulting supernatant further spun at 60,000×g. The supernatant was assayed for both FTase and GGTase I. Briefly, 100 μg of the supernatants was incubated in 50 mM Tris, pH 7.5, 50 μM ZnCl2, 20 mM KCl, 3 mM MgCl2 and 1 mM DTT. For FTase assays, the reaction was incubated at 37° C. for 30 minutes with recombinant H-Ras-CVLS (11 μM) and [^3 H] FPP (625 nM; 16.3 Ci/mmol). For GGTase assays, the reaction was also incubated for 30 minutes at 37° C. but with recombinant H-Ras-CVLL (5 μM) and [^3 H] GGPP (525 nM; 19.0 Ci/mmol). The reaction was stopped and passed through glass fiber filters to separate free and incorporated label. For inhibition studies, the peptidomimetics were premixed with FTase or GGTase I prior to adding the remainder of the reaction mixture. Recombinant H-Ras-CVLS was prepared as described previously (26) from bacteria (31). Recombinant H-Ras-CVLL was prepared from bacteria (32).
FTase and GGTase I activities from 60,000×g supernatants of human Burkitt lymphoma (Daudi) cells (ATCC, Rockville, Md.) were assayed exactly as described previously for FTase (41). Inhibition studies were performed by determining the ability of Ras CAAX peptidomimetics to inhibit the transfer of [^3 H]-farnesyl and [^3 H]-geranylgeranyl from [^3 H]FPP and [^3 H]GGPP to H-ras-CVLS and H-Ras-CVLL, respectively (41).

[3] = biological target: T1, FTase; experiment: Peptidomimetics farnesylation assay (silica gel TLC); conditions: Table 4; substrate for farnesylation, TLC
Method: The ability of human Burkitt lymphoma (Daudi) FTase to farnesylate peptides and peptidomimetics was determined as described previously (34, 35). Briefly, 25 μl of reaction mixture containing 50 μg of 60,000×g supernatants and 20 μM peptidomimetic in 50 mM Tris, pH 7.5, 50 μM ZnCl2, 20 mM KCl, 3 mM MgCl2, 1 mM DTT and 0.2% octylβ-D-glucoside was incubated for 30 minutes at 37° C., then spotted onto silica gel G TLC sheets (20×20 cm, Brinkmann Instruments), and developed with n-propanol/5 N ammonium hydroxide/water (6:1:1). The dried sheets were sprayed with En^3 Hance (DuPont NEN) and exposed to x-ray film for detection of [^3 H] farnesylated products.

[4] = Table 4, read-out: GGTase-I IC50
[5] = Table 1, read-out: GGTase I IC50

Selectivity ([1]; Table 4) | IC50 ([1]; Table 4, read-out: FTase IC50) [µM] | IC50 [2, 4] [µM] | Molecule | also measured
> 2 | 430 | > 1000 | 4-(Vinylsulfonyl-3-aminoalanyl)-amino-3'-carboxybiphenyl [FTI-296] | –
1090 | 0.04 | 43.6 | COc1cc(NC[C@@H](N)CS)ccc1-c1cccc(C(=O)O)c1 [FTI-281, 2-Methoxy-4-N-[2(R)-amino-3-mercaptopropyl]amino-3'-carboxybiphenyl] | –
> 2 | 50 | – | NCC(N)CNc1ccc(-c2cccc(C(=O)O)c2)cc1 (stereo not drawn) [FTI-282, (DL) 4-(2,3-diaminopropyl)-amino-3' carboxybiphenyl] | –
3 | 11 | 35 | N[C@@H](CS)CNCc1cccc(-c2cccc(C(=O)O)c2)c1 [FTI-283, red.Cys-3-aminomethyl-3'-carboxybiphenyl] | –
4 | 2.08 | 8.5 | Cc1cccc(-c2ccc(NC[C@@H](N)CS)cc2-c2ccccc2)c1 [FTI-285, red.Cys-4-amino-2-phenyl-3'-methylbiphenyl] | –
59 | 0.041 | 2.38 | CCCOc1cc(NC[C@@H](N)CS)ccc1-c1cccc(C(=O)O)c1 [FTI-288, red.Cys-4-amino-2-OPr-3'-carboxybiphenyl] | –
40 | 0.016 | 0.643 | N[C@@H](CS)CNc1ccc(-c2cccc(C(=O)O)c2)c(-c2ccccc2)c1 [FTI-289, red.Cys-4-amino-2-phenyl-3'-carboxybiphenyl] | –
– | 60 | – | NC[C@H](N)CNc1ccc(-c2cccc(C(=O)O)c2)cc1 [FTI-292, (L)4(2,3-diaminopropyl)-amino-3'-carboxybiphenyl] | –
187 | 0.03 | 5 | N[C@@H](CS)CNc1ccc(-c2cccc(-c3nnn[nH]3)c2)cc1 [FTI-2102, red.Cys-4-amino-3'-tetrazolylbiphenyl] | –

More lines, now with the values behind:

Molecule | Selectivity ([1]; Table 4) | IC50 ([1]; Table 4, read-out: FTase IC50) [µM] | IC50 [2, 4] [µM] | also measured
N[C@@H](CS)C(=O)NCc1cccc(-c2cccc(C(=O)O)c2)c1 [FTI-238, Cys-3-aminomethyl-3'-carboxybiphenyl] | > 1 | 100 | > 100 | Substrate [3]: no
COC(=O)c1cccc(-c2ccc(NC[C@@H](N)CS)cc2)c1 [FTI-259, 4-N-[2(R)-Amino-3-mercaptopropyl]amino-3'-methoxycarbonylbiphenyl] | 109 | 0.917 | > 100 | Substrate [3]: no
COc1cc(C(=O)NC(CCSC)C(=O)O)ccc1NC(=O)C(N)CS.O=C(O)C(F)(F)F (stereo not drawn) [FTI-261, TFA.Cysteine-4-amino-3-methoxybenzoyl methionine] | – | – | – | GG/F ([1]; Table 1): 20; IC50 ([1]; Table 1, read-out: FTase IC50): 2.55 µM; IC50 [2, 5]: 50 µM
N[C@@H](CS)CNc1ccc(-c2ccccc2)cc1 [FTI-268, 4-N-[2(R)Amino-3-Mercaptopropyl]aminobiphenyl] | 93 | 1.07 | > 100 | Substrate [3]: no
CSCC[C@H](NC(=O)c1ccc(NC(=O)[C@@H](N)CS)cc1-c1ccccc1)C(=O)O.O=C(O)C(F)(F)F [FTI-272, TFA.Cysteine-4-amino-2-phenylbenzoyl methionine] | – | – | – | GG/F ([1]; Table 1): 53; IC50 ([1]; Table 1, read-out: FTase IC50): 0.005 µM; IC50 [2, 5]: 0.267 µM
N[C@@H](CS)CNc1ccc(-c2ccccc2C(=O)O)cc1 [FTI-273, 4-N-[2(R)-Amino-3-mercaptopropyl]amino-2'-carboxybiphenyl] | 258 | 0.543 | 140 | –
COC(=O)C(CCSC)NC(=O)c1ccc(NC(=O)C(N)CS)cc1-c1ccccc1.Cl (stereo not drawn) [FTI-274, HCl.cysteine-4-amino-2-phenylbenzoyl methionine methyl ester] | – | – | – | GG/F ([1]; Table 1): 15; IC50 ([1]; Table 1, read-out: FTase IC50): 2.05 µM; IC50 [2, 5]: 30 µM
CSCC[C@H](NC(=O)c1ccc(NC(=O)[C@@H](N)CS)cc1-c1cc(C)cc(C)c1)C(=O)O.O=C(O)C(F)(F)F [FTI-275, TFA.Cysteine-4-amino-2-(3,5-dimethylphenyl)benzoyl methionine] | – | – | – | GG/F ([1]; Table 1): 1; IC50 ([1]; Table 1, read-out: FTase IC50): 0.405 µM; IC50 [2, 5]: 0.4 µM
N[C@@H](CS)C(=O)Nc1ccc(-c2cccc(C(=O)O)c2)cc1 [FTI-278, Cysteinyl-4-amino-3'-carboxybiphenyl] | 7 | 13.5 | 100 | –
NCC(N)C(=O)Nc1ccc(-c2cccc(C(=O)O)c2)cc1 (stereo not drawn) [FTI-291, 4-(3-Aminoalanyl)-amino-3'-carboxybiphenyl] | – | 210 | – | –
CCS(=O)(=O)NCC(N)C(=O)Nc1ccc(-c2cccc(C(=O)O)c2)cc1 (stereo not drawn) [FTI-295, 4-(Ethylsulfonyl-3-aminoalanyl)-amino-3'-carboxy-biphenyl] | > 5 | 200 | > 1000 | –
CC(C)C[C@H](NC(=O)c1ccc(NC[C@@H](N)CS)cc1-c1ccccc1)C(=O)O [GGTI-287, 4-[2(R)-amino-3-mercaptopropyl]amino-2-phenylbenzoyl-(S)-leucine] | – | – | – | IC50 ([1]; Table 5, read-out: In Vitro IC50 FTase): 0.025 µM; selectivity for GGTase I over FTase [2]: 5 fold; IC50 ([2]; Table 5, read-out: In Vitro IC50 GGTase I): 0.005 µM; IC50 ([2]; read-out: GGTase I IC50): 0.005 µM
HCl-cysteine-4-aminobenzoyl methionine [FTI-232] | 10 | 0.15 | 1.5 | selectivity for FTase over GGTase I [1]: 10 fold; GG/F ([1]; Table 1): 6; IC50 ([1]; Table 1, read-out: FTase IC50): 0.213 µM; IC50 [2, 5]: 1.2 µM
TFA.cysteine-4-amino-1-naphthoyl methionine [FTI-270] | – | – | – | GG/F ([1]; Table 1): 22; IC50 ([1]; Table 1, read-out: FTase IC50): 0.143 µM; IC50 [2, 5]: 3.15 µM
TFA.cysteine-4-amino-3-methylbenzoyl methionine [FTI-260] | – | – | – | GG/F ([1]; Table 1): 11; IC50 ([1]; Table 1, read-out: FTase IC50): 0.825 µM; IC50 [2, 5]: 9 µM
